Experimental data: patent publication US6680323B2, “Dihydropyrimidines and uses thereof” (Synaptic Pharmaceutical Corporation, priority 1998, dated 2004)
Counter-ions that a name gives are not always drawn.

Columns and labels:
human α1a receptor = target: T1, human α1a receptor (Homo sapiens, UniProt P35348); experiment: Radioligand binding ([3H]prazosin) at cloned human α1a receptor; settings: hα1a; membranes of transfected LM(tk−) cells, [3H]prazosin 0.5 nM; read-out: Binding affinity hα1a
T1 construct: expressed in transfected cells
T1 sequence (P35348 1-466): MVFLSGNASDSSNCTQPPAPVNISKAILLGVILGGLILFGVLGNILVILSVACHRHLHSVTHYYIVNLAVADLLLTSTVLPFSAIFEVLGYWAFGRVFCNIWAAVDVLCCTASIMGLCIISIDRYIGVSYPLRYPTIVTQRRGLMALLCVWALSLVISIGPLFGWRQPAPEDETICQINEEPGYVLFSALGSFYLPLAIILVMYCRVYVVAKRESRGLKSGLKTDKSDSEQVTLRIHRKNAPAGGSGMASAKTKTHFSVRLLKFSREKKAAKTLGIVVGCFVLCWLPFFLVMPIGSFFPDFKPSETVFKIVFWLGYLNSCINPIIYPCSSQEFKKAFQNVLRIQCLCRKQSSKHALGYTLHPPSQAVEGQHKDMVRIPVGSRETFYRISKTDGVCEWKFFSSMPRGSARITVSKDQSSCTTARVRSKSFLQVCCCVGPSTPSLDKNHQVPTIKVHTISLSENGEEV
Procedure: (§1) The activity of compounds at the different human receptors was determined in vitro using cultured cell lines that selectively express the receptor of interest. These cell lines were prepared by transfecting the cloned cDNA or cloned genomic DNA or constructs containing both genomic DNA and cDNA encoding the human α-adrenergic receptors as follows:
α1a Human Adrenergic Receptor
The entire coding region of α1a (1401 bp), including 400 base pairs of 5′ untranslated sequence (5′ UT) and 200 bp of 3′ untranslated sequence (3′ UT), was cloned into the KpnI site of the polylinker-modified pCEXV-3-derived eukaryotic expression vector, EXJ.RH. The construct involved ligating three partial overlapping fragments: a 5′ 0.6 kb HincII genomic clone, a central 1.8 EcoRI hippocampal cDNA clone,. and a 3′ 0.6 Kb PstI genomic clone. The hippocampal cDNA fragment overlaps with the 5′ and 3′ genomic clones so that the HincII and PstI sites at the 5′ and 3′ ends of the cDNA clone, respectively, were utilized for ligation. This full-length clone was cloned into the KpnI site of the expression vector, using the 5′ and 3′ KpnI sites of the fragment, derived from vector (i.e., pBluescript) and 31-untranslated sequences, respectively. Stable cell lines were selected as described above. The stable cell line expressing the human α1a receptor used herein was designated L-α1C (old nomenclature) and was deposited with the American Type Culture Collection, 12301 Parklawn Drive, Rockville, Md. 20852, U.S.A. under the provisions of the Budapest Treaty for the International Recognition of the Deposit of Microorganisms for the Purposes of Patent Procedure. The cell line expressing the human α1a receptor was accorded Accession No. CR 11140, on Sep. 25, 1992.
(§2) Radioligand Binding Assays for α1 Receptors
(§3) Transfected cells from culture flasks were scraped into 5 ml of 5 mM Tris-HCl, 5 mM EDTA, pH 7.5, and lysed by sonication. The cell lysates were centrifuged at 1000 rpm for 5 min at 4° C., and the supernatant was centrifuged at 30,000×g for 20 min at 4° C. The pellet was suspended in 50 mM Tris-HCl, 1 mM MgCl2, and 0.1% ascorbic acid at pH 7.5. Binding of the α1 antagonist [^3H]prazosin (0.5 nM, specific activity 76.2 Ci/mmol) to membrane preparations of LM(tk−) cells was done in a final volume of 0.25 ml and incubated at 37° C. for 20 min. Nonspecific binding was determined in the presence of 10 μM phentolamine. The reaction was stopped by filtration through GF/B filters using a cell harvester. Inhibition experiments, routinely consisting of 7 concentrations of the tested compounds, were analyzed using a non-linear regression curve-fitting computer program to obtain Ki values.

human α1b receptor = target: T2, human α1b receptor (Homo sapiens, UniProt P35368); experiment: Radioligand binding ([3H]prazosin) at cloned human α1b receptor; settings: membranes of transfected LM(tk−) cells, [3H]prazosin 0.5 nM; read-out: Binding affinity hα1b
T2 construct: The entire coding region of α1b (1563 bp); expressed in transfected cells
T2 sequence (P35368 1-520): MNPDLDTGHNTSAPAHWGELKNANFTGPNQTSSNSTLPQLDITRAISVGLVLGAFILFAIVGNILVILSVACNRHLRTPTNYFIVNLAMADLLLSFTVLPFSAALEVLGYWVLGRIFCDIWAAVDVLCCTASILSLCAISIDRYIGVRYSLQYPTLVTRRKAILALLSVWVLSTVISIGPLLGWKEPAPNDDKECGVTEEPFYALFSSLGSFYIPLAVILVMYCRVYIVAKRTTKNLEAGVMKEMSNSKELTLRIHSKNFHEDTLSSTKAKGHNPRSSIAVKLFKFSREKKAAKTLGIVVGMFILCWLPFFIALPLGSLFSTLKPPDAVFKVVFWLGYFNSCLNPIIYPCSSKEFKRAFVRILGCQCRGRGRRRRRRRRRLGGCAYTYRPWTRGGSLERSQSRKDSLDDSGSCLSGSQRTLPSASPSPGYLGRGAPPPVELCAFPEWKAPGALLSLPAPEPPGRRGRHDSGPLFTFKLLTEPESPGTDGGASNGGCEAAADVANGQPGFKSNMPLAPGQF
Procedure: as §1
α1b Human Adrenergic Receptor
The entire coding region of α1b (1563 bp), including 200 base pairs and 5′ untranslated sequence (5′ UT) and 600 bp of 3′ untranslated sequence (3′ UT), was cloned into the EcoRI site of pCEXV-3 eukaryotic expression vector.
The construct involved ligating the full-length containing EcoRI brainstem cDNA fragment from λ ZapII into the expression vector. Stable cell lines were selected as described above. The cell line used herein was designated L-α1B and was deposited with the American Type Culture Collection, 12301 Parklawn Drive, Rockville, Md. 20852, U.S.A. under the provisions of the Budapest Treaty for the International Recognition of the Deposit of Microorganisms for the Purposes of Patent Procedure. The cell line L-α1B was accorded ATCC Accession No. CR 11139, on Sep. 29, 1992.
as §2, §3

Row | Compound | Ki (human α1a receptor) [nM] | Ki (human α1b receptor) [nM]
1 | O=C1OCC2=C1C(c1ccc(F)c(F)c1)N(C(=O)NCCCN1CCC(c3ccccn3)CC1)C(=O)N2 (single isomer, unassigned; (+)) [Compound 8, (+)-1-3-{[4-(3,4-Difluorophenyl)-2,5-dioxo-1,2,5,7-tetrahydro-4H-furo[3,4-d]-pyrimidine-3-carbonyl]amino}-propyl-4-(2-pyridyl)-piperidine] | 3 | 1600
2 | COCC1=C(C(=O)OC)[C@H](c2ccc(F)c(F)c2)N(C(=O)NCCCO)C(=O)N1 [Compound 1, (+)-1,2,3,6-Tetrahydro-1-(3-hydroxypropyl)carboxamido-5-methoxycarbonyl-4-methoxymethyl-6-(3,4-difluorophenyl)-2-oxo-pyrimidine] | 260 | > 50000
3 | COCC1=C(C(=O)OC)[C@H](c2ccc(F)c(F)c2)N(C(=O)NCCCN2CCC(c3cccc[n+]3[O-])CC2)C(=O)N1 [Compound 2, (+)-1,2,3,6-Tetrahydro-1-{N-[4-(2-pyridyl)piperidin-1-yl]propyl}carboxamido-5-methoxycarbonyl-4-methoxymethyl-6-(3,4-difluorophenyl)-2-oxopyrimidine-pyridine-N-oxide hydrochloride] | 0.3 | 1500
4 | COCC1=C(C(=O)OC)[C@H](c2ccc(F)c(F)c2)N(C(=O)NCCC[n+]2ccc(-c3ccccn3)cc2)C(=O)N1 [Compound 3, 4-(2-Pyridyl)-1-{3-[5-carboxymethyl-4-methoxymethyl-2-oxo-6(S)-(3,4-difluorphenyl)-1,2,3,6-tetrahydropyrimidin-1-yl]carboxyaminopropyl}pyridinium chloride] | 212 | > 2000
5 | COC(=O)C1=C(CO)NC(=O)N(C(=O)NCCCN2CCC(c3ccccn3)CC2)[C@H]1c1ccc(F)c(F)c1 [Compound 7, (+)-1,2,3,6-Tetrahydro-1-{N-[4-(2-pyridyl)piperidin-1-yl]propyl}carboxamido-5-methoxycarbonyl-4-hydroxymethyl-6-(3,4-difluorophenyl)-2-oxopyrimidine] | 0.8 | 530
6 | O=C(O)CCNC(=O)N1C(=O)NC2=C(C(=O)OC2)[C@@H]1c1ccc(F)c(F)c1 [Compound 9] | > 500 | > 2000
